Test results from patent publication US20260373248A1, “DEGRADABLE PEPTOIDS” (Medici Therapeutics, Inc., priority 2023, published 2026).
Starred links: 1 amine or outer side, 2 acyl side, 3 side chain; linkers in the order of their positions; H or OH if unused. Non-standard residues stand in square brackets, D forms with d. Residues, ends and D or L forms follow the SMILES beside them. *: point of attachment. Gly(N-(3-decanoyloxypropyl)) = CCCCCCCCCC(=O)OCCCNCC(=O)O; N(2-decanoyloxyethyl)Gly = CCCCCCCCCC(=O)OCCNCC(=O)O; Gly(N-(CH2)3O-octanoyl) = CCCCCCCC(=O)OCCCNCC(=O)O; N(3-imidazol-1-ylpropyl)Gly = O=C(O)CNCCCn1ccnc1; Gly(N-3-morpholinopropyl) = O=C(O)CNCCCN1CCOCC1; N(2-ethylhexyl)Gly = CCCCC(CC)CNCC(=O)O; X2 = CCCCCCC(CCCC)CN(CC(=O)[*:2])[*:1]; N(CH(CH2OH)2)Gly = O=C(O)CNC(CO)CO; N(octyl)Gly = CCCCCCCCNCC(=O)O; NHexGly = CCCCCCNCC(=O)O; For = O=C*

Tests used:
[1] = tested on: luciferase; assay: Luciferase expression after local (intramuscular or subcutaneous) administration of mRNA; format: in vivo; conditions: mRNA 0.01 mpk, 6 hours; for IM Flux: intramuscular; for SC Flux: subcutaneous
Summary of the method: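 Female Balb/c mice (6-8 weeks) received fLuc mRNA in aminolipidated peptoid Nutshells at 0.01 mpk subcutaneously or intramuscularly, or 0.1 mpk intratumorally. At 6 hours, anesthetized mice were given D-luciferin IP and imaged 10 minutes later; harvested organs were also imaged and total photon flux quantified in regions of interest.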

[2] = tested on: hEPO; assay: Quantification of hEPO in serum after IV injection of mRNA (Human EPO ELISA); format: in vivo; conditions: Balb/c mice, 2.5 μg mRNA IV, serum after 6 hours
Summary of the method: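 Balb/c mice received 2.5 μg mRNA encoding human EPO by IV injection; serum was collected after 6 hours. hEPO was measured by sandwich ELISA (biotin-conjugate, streptavidin-HRP, TMB, A450) against kit standards (mIU/mL) and an external standard (ng/mL), with values interpolated and corrected for dilution.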

[3] = tested on: mRNA; assay: mRNA encapsulation (modified Quant-iT RiboGreen assay); format: physicochemical; conditions: for mean percent encapsulation of RNA: RiboGreen, without vs with Triton X-100; for % Encapsulation: mRNA
Summary of the method: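 Peptoid nanoparticles were incubated with Triton X-100 for 10 min to release entrapped mRNA, then mixed with RiboGreen reagent and read by fluorescence (ex 485 nm/em 530 nm). Percent encapsulation was derived from the ratio of fluorescence without versus with Triton X-100.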

[4] = Peptoid quantity remaining in liver by HPLC-TOF mass spectrometry; format: in vivo; conditions: liver homogenate
Summary of the method: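 Whole liver weighed; 20 mg tissue bead-homogenized in IPA/MeOH (8/2) with internal standard, centrifuged, supernatant run on BEH C8 HPLC-TOF MS. Peptoid concentration derived from linear calibration curve (0.2-50 μg/g) prepared in spiked untreated liver.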

[5] = tested on: firefly luciferase; assay: In vivo firefly luciferase expression after intravenous injection of fLuc mRNA delivery vehicles (IVIS imaging); parameters: species or system female Balb/c mice; conditions: for Total Flux: mice, 2.5 ug fLuc mRNA intravenously, 6 hours post-injection; for Total Flux (luciferase expression): fLuc mRNA, intravenous, Balb/c mice
Summary of the method: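 Female Balb/c mice (6-8 weeks) given 2.5 ug fLuc mRNA in Nutshells IV. At 6 hours, IP D-luciferin (30 mg/mL, 10 μL/g) under isoflurane; IVIS imaging 10 minutes later, then harvested organs imaged ex vivo. Read-out: total photon flux in regions of interest.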

[6] = Delivery vehicle size and polydispersity by dynamic light scattering; format: physicochemical
Summary of the method: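 LNPs made by microfluidic mixing of ethanolic peptoid/DSPC/cholesterol/DMG-PEG2000 (20:1.79:7.16:1.84 by weight) with mRNA in 10 mM citrate pH 5.0 at 1:3 by volume, then dialyzed overnight at 4 °C against tris-sucrose pH 7.4. Size and PDI read by dynamic light scattering in PBS.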

[7] = DLS in PBS, peptoid:DSPC:Cholesterol:DMG-PEG2000 weight ratio 20:1.79:7.16:1.84, mRNA

Row | Compound | IM Flux [1] [p/s] | SC Flux [1] [p/s] | hEPO [2] [ng/mL] | mean percent encapsulation of RNA [3] [%] | % of injected dose remaining in liver [4] | Total Flux [5] [p/s] | PDI [6, 7] | Particle Size [6, 7] [nm] | also measured
1 | CCCCCCCCCC(=O)OCCCN(CC(N)=O)C(=O)CN(CCCOC(=O)CCCCCCCCC)C(=O)CN(CC(CC)CCCC)C(=O)CN(CCCOC(=O)CCCCCCCCC)C(=O)CN(CCCOC(=O)CCCCCCCCC)C(=O)CN(CC(CC)CCCC)C(=O)CNC(CO)CO (stereo not drawn) [Compound 102] (H-[N(CH(CH2OH)2)Gly][N(2-ethylhexyl)Gly][Gly(N-(3-decanoyloxypropyl))][Gly(N-(3-decanoyloxypropyl))][N(2-ethylhexyl)Gly][Gly(N-(3-decanoyloxypropyl))][Gly(N-(3-decanoyloxypropyl))]-NH2) | 2.12E+08 | 1.76E+08 | 207 | 47.1 | 0.86% | 1.90E+09 | 0.123 | 97.8 | –
2 | CCCCCCCCCC(=O)OCCCN(CC(N)=O)C(=O)CN(CC(CC)CCCC)C(=O)CN(CCCOC(=O)CCCCCCCCC)C(=O)CN(CCCOC(=O)CCCCCCCCC)C(=O)CN(CCCOC(=O)CCCCCCCCC)C(=O)CN(CC(CC)CCCC)C(=O)CNC(CO)CO (stereo not drawn) [Compound 103] (H-[N(CH(CH2OH)2)Gly][N(2-ethylhexyl)Gly][Gly(N-(3-decanoyloxypropyl))][Gly(N-(3-decanoyloxypropyl))][Gly(N-(3-decanoyloxypropyl))][N(2-ethylhexyl)Gly][Gly(N-(3-decanoyloxypropyl))]-NH2) | 1.93E+08 | 7.28E+08 | 961 | 76.8 | bdl | 8.56E+09 | 0.111 | 81.5 | –
3 | CCCCCCCC(=O)OCCCN(CC(=O)N(CC(=O)N(CC(=O)N(CCCOC(=O)CCCCCCC)CC(=O)N(CC(N)=O)CC(CCCC)CCCCCC)CC(CC)CCCC)CC(CCCC)CCCCCC)C(=O)CN(CC(CC)CCCC)C(=O)CNC(CO)CO (stereo not drawn) [Compound 104] (H-[N(CH(CH2OH)2)Gly][N(2-ethylhexyl)Gly][Gly(N-(CH2)3O-octanoyl)][X2][N(2-ethylhexyl)Gly][Gly(N-(CH2)3O-octanoyl)][X2]-NH2) | 1.34E+08 | 1.93E+08 | 693 | 93.6 | 7.45% | 4.50E+09 | 0.092 | 78.8 | –
4 | CCCCCCCCCC(=O)OCCN(CC(N)=O)C(=O)CN(CCOC(=O)CCCCCCCCC)C(=O)CN(CC(CC)CCCC)C(=O)CN(CCOC(=O)CCCCCCCCC)C(=O)CN(CCOC(=O)CCCCCCCCC)C(=O)CN(CC(CC)CCCC)C(=O)CNC(CO)CO (stereo not drawn) [Compound 105] (H-[N(CH(CH2OH)2)Gly][N(2-ethylhexyl)Gly][N(2-decanoyloxyethyl)Gly][N(2-decanoyloxyethyl)Gly][N(2-ethylhexyl)Gly][N(2-decanoyloxyethyl)Gly][N(2-decanoyloxyethyl)Gly]-NH2) | 2.85E+08 | 9.57E+08 | 580 | 73.2 | 7.51% | 1.05E+10 | 0.150 | 75.9 | % Encapsulation ([3]; formulation recipe D22): 73.2%; % Encapsulation ([3]; formulation recipe R1): 92.7%; % Encapsulation ([3]; formulation recipe R4): 73.1%; % Encapsulation ([3]; formulation recipe R5): 94.6%; % Encapsulation ([3]; formulation recipe R9): 94.0%; % Encapsulation ([3]; formulation recipe R10): 93.2%; Total Flux (luciferase expression) ([5]; formulation recipe D22): 1.05E+10 p/s; Total Flux (luciferase expression) ([5]; formulation recipe R1): 4.15E+08 p/s; Total Flux (luciferase expression) ([5]; formulation recipe R4): 2.47E+09 p/s; Total Flux (luciferase expression) ([5]; formulation recipe R5): 1.28E+09 p/s; Total Flux (luciferase expression) ([5]; formulation recipe R9): 1.56E+09 p/s; Total Flux (luciferase expression) ([5]; formulation recipe R10): 2.70E+09 p/s; Particle Size ([6]; formulation recipe D22): 75.9 nm; Particle Size ([6]; formulation recipe R1): 55.6 nm; Particle Size ([6]; formulation recipe R4): 59.6 nm; Particle Size ([6]; formulation recipe R5): 63.5 nm; Particle Size ([6]; formulation recipe R9): 64.9 nm; Particle Size ([6]; formulation recipe R10): 68.6 nm
5 | CCCCCCCCCC(=O)OCCCN(CC(=O)N(CC(=O)N(CC(=O)N(CCCOC(=O)CCCCCCCCC)CC(=O)N(CC(N)=O)CC(CC)CCCC)CC(CC)CCCC)CC(CC)CCCC)C(=O)CN(CC(CC)CCCC)C(=O)CN(C=O)CCCN1CCOCC1 (stereo not drawn) [Compound 106] (For-[Gly(N-3-morpholinopropyl)][N(2-ethylhexyl)Gly][Gly(N-(3-decanoyloxypropyl))][N(2-ethylhexyl)Gly][N(2-ethylhexyl)Gly][Gly(N-(3-decanoyloxypropyl))][N(2-ethylhexyl)Gly]-NH2) | 1.07E+08 | 1.70E+08 | 471 | 80.0 | 5.86% | 6.71E+09 | 0.155 | 91.5 | –
6 | CCCCCCCCCC(=O)OCCCN(CC(=O)N(CC(=O)N(CC(=O)N(CCCOC(=O)CCCCCCCCC)CC(=O)N(CC(N)=O)CC(CC)CCCC)CC(CC)CCCC)CC(CC)CCCC)C(=O)CN(CC(CC)CCCC)C(=O)CNCCCn1ccnc1 (stereo not drawn) [Compound 107] (H-[N(3-imidazol-1-ylpropyl)Gly][N(2-ethylhexyl)Gly][Gly(N-(3-decanoyloxypropyl))][N(2-ethylhexyl)Gly][N(2-ethylhexyl)Gly][Gly(N-(3-decanoyloxypropyl))][N(2-ethylhexyl)Gly]-NH2) | 7.22E+07 | 7.41E+07 | 268 | 96.1 | 47.20% | 2.01E+09 | 0.140 | 77.4 | –
7 | CCCCCCCCCC(=O)OCCCN(CC(=O)N(CCCOC(=O)CCCCCCCCC)CC(=O)N(CCCCCC)CC(=O)N(CCCOC(=O)CCCCCCCCC)CC(=O)N(CCCOC(=O)CCCCCCCCC)CC(=O)N(CCCCCC)CC(N)=O)C(=O)CN(C=O)CCCN1CCOCC1 [Compound 108] (For-[Gly(N-3-morpholinopropyl)][Gly(N-(3-decanoyloxypropyl))][Gly(N-(3-decanoyloxypropyl))][NHexGly][Gly(N-(3-decanoyloxypropyl))][Gly(N-(3-decanoyloxypropyl))][NHexGly]-NH2) | 1.25E+08 | 1.74E+08 | 377 | 49.9 | 7.35% | 4.91E+09 | 0.263 | 96.7 | % Encapsulation ([3]; formulation recipe F2): 60.1%; Total Flux (luciferase expression) ([5]; formulation recipe F2): 1.47E+09 p/s; Particle Size ([6]; formulation recipe F2): 95.3 nm
8 | CCCCCCCCCC(=O)OCCCN(CC(=O)N(CCCOC(=O)CCCCCCCCC)CC(=O)N(CCCCCC)CC(=O)N(CCCOC(=O)CCCCCCCCC)CC(=O)N(CCCOC(=O)CCCCCCCCC)CC(=O)N(CCCCCC)CC(N)=O)C(=O)CNCCCn1ccnc1 [Compound 109] (H-[N(3-imidazol-1-ylpropyl)Gly][Gly(N-(3-decanoyloxypropyl))][Gly(N-(3-decanoyloxypropyl))][NHexGly][Gly(N-(3-decanoyloxypropyl))][Gly(N-(3-decanoyloxypropyl))][NHexGly]-NH2) | 3.97E+07 | 1.00E+08 | 108 | 69.5 | 48.80% | 1.85E+09 | 0.173 | 87.5 | –
9 | CCCCCCCCCC(=O)OCCCN(CC(=O)N(CC(N)=O)CC(CC)CCCC)C(=O)CN(CCCCCCCC)C(=O)CN(CC(CC)CCCC)C(=O)CN(CCCOC(=O)CCCCCCCCC)C(=O)CN(CCCCCCCC)C(=O)CN(C=O)CCCN1CCOCC1 (stereo not drawn) [Compound 110] (For-[Gly(N-3-morpholinopropyl)][N(octyl)Gly][Gly(N-(3-decanoyloxypropyl))][N(2-ethylhexyl)Gly][N(octyl)Gly][Gly(N-(3-decanoyloxypropyl))][N(2-ethylhexyl)Gly]-NH2) | 1.43E+08 | 2.34E+08 | 333 | 50.5 | 5.52% | 2.54E+09 | 0.088 | 102.9 | –
